Source: paper PMC5218480 (PLoS ONE, 2017)

Tested on: MV-4-11 cells
Assay: Gene expression microarray analysis (Affymetrix PrimeView) and GSEA
Assay type: cell-based, human
Design: RFU PODN (11730768_x_at) / Fold change /veh PODN (11730768_x_at) / RFU LINC00158 (11744669_a_at) / Fold change /veh LINC00158 (11744669_a_at) / RFU DUSP10 (11751237_a_at) / Fold change /veh DUSP10 (11751237_a_at) / RFU ID3 (11757404_x_at) / Fold change /veh ID3 (11757404_x_at) / RFU PLEKHG5 (11737974_s_at) / Fold change /veh PLEKHG5 (11737974_s_at) / RFU LRRC4B (11730491_at) / Fold change /veh LRRC4B (11730491_at) / RFU GIMAP4 (11747438_a_at) / Fold change /veh GIMAP4 (11747438_a_at) / RFU KRT8 (11758183_x_at) / Fold change /veh KRT8 (11758183_x_at) / RFU CNN1 (11734310_a_at) / Fold change /veh CNN1 (11734310_a_at) / RFU VPS37D (11726825_at) / Fold change /veh VPS37D (11726825_at) / RFU C10orf10 (11716522_x_at) / Fold change /veh C10orf10 (11716522_x_at) / RFU KIR2DL2 /// KIR2DL4 /// KIR2DL5A /// KIR2DL5B /// KIR2DS1 /// KIR2DS2 /// KIR2DS3 /// KIR2DS4 /// KIR3DL3 /// KIR3DL3 /// KIR3DS1 (11738374_at) / Fold change /veh KIR2DL2 /// KIR2DL4 /// KIR2DL5A /// KIR2DL5B /// KIR2DS1 /// KIR2DS2 /// KIR2DS3 /// KIR2DS4 /// KIR3DL3 /// KIR3DL3 /// KIR3DS1 (11738374_at) / RFU C1QL1 (11718748_at) / Fold change /veh C1QL1 (11718748_at) / RFU TMPRSS4 (11747572_a_at) / Fold change /veh TMPRSS4 (11747572_a_at) / RFU HAMP (11756126_x_at) / Fold change /veh HAMP (11756126_x_at) / RFU RNFT2 (11725882_a_at) / Fold change /veh RNFT2 (11725882_a_at) / RFU NR4A2 (11747474_a_at) / Fold change /veh NR4A2 (11747474_a_at) / RFU ABCC12 (11746883_a_at) / Fold change /veh ABCC12 (11746883_a_at) / RFU TMEM136 (11760407_x_at) / Fold change /veh TMEM136 (11760407_x_at) / RFU CLDN22 /// WWC2 (11732394_at) / Fold change /veh CLDN22 /// WWC2 (11732394_at) / RFU HLA-DPB1 (11760878_x_at) / Fold change /veh HLA-DPB1 (11760878_x_at) / RFU SPINT1 (11716480_a_at) / Fold change /veh SPINT1 (11716480_a_at) / RFU GAP43 (11754022_s_at) / Fold change /veh GAP43 (11754022_s_at) / RFU A4GNT (11735810_at) / Fold change /veh A4GNT (11735810_at) / RFU PRB3 (11715151_x_at) / Fold change /veh PRB3 (11715151_x_at) / RFU TUBB4B (11761932_at) / Fold change /veh TUBB4B (11761932_at) / RFU CAPN14 (11732068_a_at) / Fold change /veh CAPN14 (11732068_a_at) / RFU TMCC2 (11721928_a_at) / Fold change /veh TMCC2 (11721928_a_at) / RFU IRGQ (11745062_a_at) / Fold change /veh IRGQ (11745062_a_at) / RFU FAM174B (11720279_a_at) / Fold change /veh FAM174B (11720279_a_at) / RFU TMPRSS4 (11748680_a_at) / Fold change /veh TMPRSS4 (11748680_a_at) / RFU FAM212B (11763350_a_at) / Fold change /veh FAM212B (11763350_a_at) / RFU PLEKHG5 (11743358_a_at) / Fold change /veh PLEKHG5 (11743358_a_at) / RFU ZSCAN30 (11745921_a_at) / Fold change /veh ZSCAN30 (11745921_a_at) / RFU CMKLR1 (11741424_a_at) / Fold change /veh CMKLR1 (11741424_a_at) / RFU LOC101060620 /// MAPK8IP1 (11723275_at) / Fold change /veh LOC101060620 /// MAPK8IP1 (11723275_at) / RFU SPTSSB (11747773_x_at) / Fold change /veh SPTSSB (11747773_x_at) / RFU PRSS12 (11739890_at) / Fold change /veh PRSS12 (11739890_at) / RFU BIN1 (11741810_x_at) / Fold change /veh BIN1 (11741810_x_at) / RFU WNT11 (11732464_a_at) / Fold change /veh WNT11 (11732464_a_at) / RFU C10orf10 (11716521_a_at) / Fold change /veh C10orf10 (11716521_a_at) / RFU C5orf56 (11738089_at) / Fold change /veh C5orf56 (11738089_at) / RFU CYB561 (11721691_x_at) / Fold change /veh CYB561 (11721691_x_at) / RFU ANKRD19P (11752326_a_at) / Fold change /veh ANKRD19P (11752326_a_at) / RFU OR2T12 /// OR2T33 /// OR2T8 (11738714_s_at) / Fold change /veh OR2T12 /// OR2T33 /// OR2T8 (11738714_s_at) / RFU VCAN (11748164_a_at) / Fold change /veh VCAN (11748164_a_at) / RFU JSRP1 (11732532_at) / Fold change /veh JSRP1 (11732532_at) / RFU KRTAP10-11 (11738290_x_at) / Fold change /veh KRTAP10-11 (11738290_x_at) / RFU MYO3A (11730013_a_at) / Fold change /veh MYO3A (11730013_a_at) / RFU EBF3 (11725865_a_at) / Fold change /veh EBF3 (11725865_a_at) / RFU CAMK2N1 (11719241_x_at) / Fold change /veh CAMK2N1 (11719241_x_at) / RFU C5orf56 (11738088_a_at) / Fold change /veh C5orf56 (11738088_a_at) / RFU OLFML3 (11715873_a_at) / Fold change /veh OLFML3 (11715873_a_at) / RFU LOC100653217 /// NTM (11731650_a_at) / Fold change /veh LOC100653217 /// NTM (11731650_a_at) / RFU MAPK11 (11762145_a_at) / Fold change /veh MAPK11 (11762145_a_at) / RFU FIZ1 (11724087_x_at) / Fold change /veh FIZ1 (11724087_x_at) / RFU OASL (11726364_x_at) / Fold change /veh OASL (11726364_x_at) / RFU SOX15 (11748057_x_at) / Fold change /veh SOX15 (11748057_x_at) / RFU CD79A (11719716_a_at) / Fold change /veh CD79A (11719716_a_at) / RFU HIST1H1D (11736915_at) / Fold change /veh HIST1H1D (11736915_at) / RFU CASKIN2 (11723855_a_at) / Fold change /veh CASKIN2 (11723855_a_at) / RFU LOC730098 (11760151_x_at) / Fold change /veh LOC730098 (11760151_x_at) / RFU OR4N2 (11742367_at) / Fold change /veh OR4N2 (11742367_at) / RFU PRRT2 (11749266_a_at) / Fold change /veh PRRT2 (11749266_a_at) / RFU SNX32 (11753110_a_at) / Fold change /veh SNX32 (11753110_a_at) / RFU CDHR5 (11726645_a_at) / Fold change /veh CDHR5 (11726645_a_at) / RFU RCAN1 (11760418_a_at) / Fold change /veh RCAN1 (11760418_a_at) / RFU FAM167A (11723789_a_at) / Fold change /veh FAM167A (11723789_a_at) / RFU FAM26E (11764081_at) / Fold change /veh FAM26E (11764081_at) / RFU ISYNA1 (11749810_s_at) / Fold change /veh ISYNA1 (11749810_s_at) / RFU ACY1 (11761880_at) / Fold change /veh ACY1 (11761880_at) / RFU 11764098_at / Fold change /veh 11764098_at / RFU SAMD14 (11745864_x_at) / Fold change /veh SAMD14 (11745864_x_at) / RFU NPB (11741838_a_at) / Fold change /veh NPB (11741838_a_at) / RFU TMPRSS6 (11731388_a_at) / Fold change /veh TMPRSS6 (11731388_a_at) / RFU KRTAP10-2 (11738614_at) / Fold change /veh KRTAP10-2 (11738614_at) / RFU ARHGAP8 /// PRR5-ARHGAP8 (11727945_x_at) / Fold change /veh ARHGAP8 /// PRR5-ARHGAP8 (11727945_x_at) / RFU KRTAP5-7 /// NADSYN1 (11734609_at) / Fold change /veh KRTAP5-7 /// NADSYN1 (11734609_at) / RFU RASL12 (11751679_a_at) / Fold change /veh RASL12 (11751679_a_at) / RFU CDKN2B (11736163_a_at) / Fold change /veh CDKN2B (11736163_a_at) / RFU PRF1 (11729649_at) / Fold change /veh PRF1 (11729649_at) / RFU, ZNF638 /// ZNF638-IT1 / Fold change vs veh, ZNF638 /// ZNF638-IT1 / RFU, PANK3 / Fold change vs veh, PANK3 / RFU, SH3YL1 / Fold change vs veh, SH3YL1 / RFU, ZEB2 / Fold change vs veh, ZEB2 / RFU, NRIP1 / Fold change vs veh, NRIP1 / RFU, PTTG1IP / Fold change vs veh, PTTG1IP / RFU, CAPN2 / Fold change vs veh, CAPN2 / RFU, MED14 / Fold change vs veh, MED14 / RFU, SNORA58 / Fold change vs veh, SNORA58 / RFU, C1orf63 / Fold change vs veh, C1orf63 / RFU, LRRFIP1 / Fold change vs veh, LRRFIP1 / RFU, NDUFAF7 / Fold change vs veh, NDUFAF7 / RFU, SLC12A2 / Fold change vs veh, SLC12A2 / RFU, IBTK / Fold change vs veh, IBTK / RFU, ESF1 / Fold change vs veh, ESF1 / Fold change vs veh, TMEM50B / RFU, TAOK1 / Fold change vs veh, TAOK1 / RFU, ACBD3 / Fold change vs veh, ACBD3 / RFU, TMA16 / Fold change vs veh, TMA16 / RFU, RWDD3 / Fold change vs veh, RWDD3 / RFU, BCAT1 / Fold change vs veh, BCAT1 / RFU, EDEM3 / Fold change vs veh, EDEM3 / RFU, TMEM33 / Fold change vs veh, TMEM33 / RFU, WDR75 / Fold change vs veh, WDR75 / RFU, AHCTF1 / Fold change vs veh, AHCTF1 / RFU, TFRC / Fold change vs veh, TFRC / RFU, ZDHHC17 / Fold change vs veh, ZDHHC17 / RFU, NOM1 / Fold change vs veh, NOM1 / RFU, ARL8B / Fold change vs veh, ARL8B / RFU, ZBTB11 / Fold change vs veh, ZBTB11 / RFU, TAMM41 / Fold change vs veh, TAMM41 / RFU, KIAA1704 /// LOC100996395 / Fold change vs veh, KIAA1704 /// LOC100996395 / RFU, ING1 / Fold change vs veh, ING1 / RFU, TRMT61B / Fold change vs veh, TRMT61B / RFU, FUBP3 / Fold change vs veh, FUBP3 / RFU, TP53 / Fold change vs veh, TP53 / RFU, TNKS2 / Fold change vs veh, TNKS2 / RFU, ZFP14 / Fold change vs veh, ZFP14 / RFU, ACTR2 / Fold change vs veh, ACTR2 / RFU, PPP3R1 / Fold change vs veh, PPP3R1 / RFU, PIK3R1 / Fold change vs veh, PIK3R1 / RFU, HNRNPA1 / Fold change vs veh, HNRNPA1 / RFU, RNF170 / Fold change vs veh, RNF170 / RFU, ZNF28 / Fold change vs veh, ZNF28 / RFU, RNGTT / Fold change vs veh, RNGTT / RFU, OGT / Fold change vs veh, OGT / RFU, BRD1 / Fold change vs veh, BRD1 / RFU, MARS / Fold change vs veh, MARS / RFU, ZNF655 / Fold change vs veh, ZNF655 / RFU, FAHD1 / Fold change vs veh, FAHD1 / RFU, BDP1 / Fold change vs veh, BDP1 / RFU, LRRCC1 / Fold change vs veh, LRRCC1 / RFU, ARID1A / Fold change vs veh, ARID1A / RFU, ZNF146 / Fold change vs veh, ZNF146 / RFU, ZNF330 / Fold change vs veh, ZNF330 / RFU, GPN3 / Fold change vs veh, GPN3 / RFU, C9orf123 / Fold change vs veh, C9orf123 / RFU, N4BP2L2 / Fold change vs veh, N4BP2L2 / RFU, ARFIP1 / Fold change vs veh, ARFIP1 / RFU, FAM179B / Fold change vs veh, FAM179B / RFU, BCL10 / Fold change vs veh, BCL10 / RFU, UHRF1BP1L / Fold change vs veh, UHRF1BP1L / RFU, BET1 / Fold change vs veh, BET1 / RFU, CNOT2 / Fold change vs veh, CNOT2 / RFU, ZNF268 / Fold change vs veh, ZNF268 / Fold change vs veh, ZNF507 / RFU, DGCR2 / Fold change vs veh, DGCR2 / RFU, WDSUB1 / Fold change vs veh, WDSUB1 / Fold change vs veh, HSP90B1 /// MIR3652 / RFU, ADSS / Fold change vs veh, ADSS / RFU, GK / Fold change vs veh, GK / RFU, ZNF148 / Fold change vs veh, ZNF148 / RFU, TAF9 / Fold change vs veh, TAF9 / RFU, SLC1A5 / Fold change vs veh, SLC1A5 / RFU, SLMO2 / Fold change vs veh, SLMO2 / RFU, ABCC4 / Fold change vs veh, ABCC4 / RFU, LOC101060439 /// RAP1B / Fold change vs veh, LOC101060439 /// RAP1B / RFU, RFX7 / Fold change vs veh, RFX7 / RFU, GTPBP10 / Fold change vs veh, GTPBP10 / RFU, CNEP1R1 / Fold change vs veh, CNEP1R1 / RFU, BIVM-ERCC5 /// ERCC5 / Fold change vs veh, BIVM-ERCC5 /// ERCC5 / RFU, ILF3 / Fold change vs veh, ILF3 / RFU 11762660_at / Fold change /veh 11762660_at / RFU VCAN (11757783_s_at) / Fold change /veh VCAN (11757783_s_at) / RFU DDX43 (11728927_at) / Fold change /veh DDX43 (11728927_at) / RFU KRT8 (11758188_x_at) / Fold change /veh KRT8 (11758188_x_at) / RFU NKD1 (11759106_at) / Fold change /veh NKD1 (11759106_at) / RFU SRD5A1 (11742802_a_at) / Fold change /veh SRD5A1 (11742802_a_at) / RFU TPSAB1 /// TPSB2 (11721975_s_at) / Fold change /veh TPSAB1 /// TPSB2 (11721975_s_at) / RFU GSTM3 (11746129_a_at) / Fold change /veh GSTM3 (11746129_a_at) / RFU IL23R (11737362_x_at) / Fold change /veh IL23R (11737362_x_at) / RFU TMEM51 (11727254_a_at) / Fold change /veh TMEM51 (11727254_a_at) / RFU PIWIL2 (11732686_x_at) / Fold change /veh PIWIL2 (11732686_x_at) / RFU ORM1 (11744905_x_at) / Fold change /veh ORM1 (11744905_x_at) / RFU CCDC152 (11743942_at) / Fold change /veh CCDC152 (11743942_at) / RFU ECM1 (11717891_a_at) / Fold change /veh ECM1 (11717891_a_at) / RFU IL23R (11748794_a_at) / Fold change /veh IL23R (11748794_a_at) / RFU TNFAIP8L3 (11732012_x_at) / Fold change /veh TNFAIP8L3 (11732012_x_at) / RFU MBOAT4 (11741988_at) / Fold change /veh MBOAT4 (11741988_at) / RFU 11764193_at / Fold change /veh 11764193_at / RFU TMEM53 (11763286_at) / Fold change /veh TMEM53 (11763286_at) / RFU MAGEB2 (11727129_at) / Fold change /veh MAGEB2 (11727129_at) / RFU TMEM200A (11744735_a_at) / Fold change /veh TMEM200A (11744735_a_at) / RFU CCDC152 (11751479_a_at) / Fold change /veh CCDC152 (11751479_a_at) / RFU FAM211A (11726209_a_at) / Fold change /veh FAM211A (11726209_a_at) / RFU RGS16 (11746705_a_at) / Fold change /veh RGS16 (11746705_a_at) / RFU VCAN (11755009_s_at) / Fold change /veh VCAN (11755009_s_at) / RFU RHOB (11743442_s_at) / Fold change /veh RHOB (11743442_s_at) / RFU RGS16 (11720943_a_at) / Fold change /veh RGS16 (11720943_a_at) / RFU RGS16 (11720944_at) / Fold change /veh RGS16 (11720944_at) / RFU, VPS4B / Fold change vs veh, VPS4B / RFU, CREB1 / Fold change vs veh, CREB1 / RFU, DNAJC13 / Fold change vs veh, DNAJC13 / RFU, GNAQ / Fold change vs veh, GNAQ / RFU, CDK5R1 / Fold change vs veh, CDK5R1 / RFU, ZRANB3 / Fold change vs veh, ZRANB3 / RFU, CUL4A / Fold change vs veh, CUL4A / RFU, CCNY / Fold change vs veh, CCNY / RFU, UFL1 / Fold change vs veh, UFL1 / RFU, COG3 / Fold change vs veh, COG3 / RFU, DIAPH2 / Fold change vs veh, DIAPH2 / RFU, SKA2 / Fold change vs veh, SKA2 / RFU, AFF3 / Fold change vs veh, AFF3 / RFU, LMF1 / Fold change vs veh, LMF1 / RFU, IPO11 / Fold change vs veh, IPO11 / RFU, DFFB / Fold change vs veh, DFFB / RFU, FOXP1 / Fold change vs veh, FOXP1 / RFU, CARD8 / Fold change vs veh, CARD8 / RFU, STRN3 / Fold change vs veh, STRN3 / RFU, ADK / Fold change vs veh, ADK / RFU, RASSF2 / Fold change vs veh, RASSF2 / RFU, WIPF1 / Fold change vs veh, WIPF1 / RFU, LARP1B / Fold change vs veh, LARP1B / RFU, RASA1 / Fold change vs veh, RASA1 / RFU, RB1 / Fold change vs veh, RB1 / RFU, PPFIA1 / Fold change vs veh, PPFIA1 / RFU, MAT2A / Fold change vs veh, MAT2A / RFU, CCT5 / Fold change vs veh, CCT5 / RFU, WDR92 / Fold change vs veh, WDR92 / RFU, CUX1 / Fold change vs veh, CUX1 / RFU, TTC7A / Fold change vs veh, TTC7A / RFU, TMEM135 / Fold change vs veh, TMEM135 / RFU, DEPTOR / Fold change vs veh, DEPTOR / RFU, CPM / Fold change vs veh, CPM / RFU, DNAJB6 / Fold change vs veh, DNAJB6 / RFU, CACNA2D3 / Fold change vs veh, CACNA2D3 / RFU, DTX4 / Fold change vs veh, DTX4 / RFU, TFCP2 / Fold change vs veh, TFCP2 / RFU, GMCL1 /// GMCL1P1 / Fold change vs veh, GMCL1 /// GMCL1P1 / RFU, AEBP2 / Fold change vs veh, AEBP2 / RFU, SNHG1 /// SNORD22 /// SNORD25 /// SNORD26 /// SNORD27 /// SNORD28 /// SNORD29 /// SNORD31 / Fold change vs veh, SNHG1 /// SNORD22 /// SNORD25 /// SNORD26 /// SNORD27 /// SNORD28 /// SNORD29 /// SNORD31 / Fold change (Aza/veh), C12orf56 (ProbeSet 11735607_a_at) / Fold change (ACY-1035/veh), C12orf56 (ProbeSet 11735607_a_at) / Fold change (Aza/veh), FGFR1OP (ProbeSet 11751329_s_at) / Fold change (ACY-1035/veh), FGFR1OP (ProbeSet 11751329_s_at) / Fold change (Aza/veh), VPS36 (ProbeSet 11739960_a_at) / Fold change (ACY-1035/veh), VPS36 (ProbeSet 11739960_a_at) / RFU SYPL1 (11715823_x_at) / Fold change /veh SYPL1 (11715823_x_at) / RFU IGFBP7 (11715501_s_at) / Fold change /veh IGFBP7 (11715501_s_at) / RFU REEP3 (11722064_at) / Fold change /veh REEP3 (11722064_at) / RFU IGLL1 (11728026_x_at) / Fold change /veh IGLL1 (11728026_x_at): dose or concentration left out as unconfirmed
Conditions: MV-4-11 cells, 48 hours

SMILES: Nc1ncn([C@@H]2O[C@H](CO)[C@@H](O)[C@H]2O)c(=O)n1 [azacitidine]
- RFU TMEM51 (11727254_a_at): 17.35 RFU
